The values below come from US11384055B2 (BIOMARIN PHARMACEUTICAL INC., priority 2017, dated 2022).

In the test the target is T1, Human GO (Homo sapiens, UniProt Q9UJM8).
T1 construct: purchased Novus Biologicals NBP1-72412
T1 sequence (Q9UJM8 1-370): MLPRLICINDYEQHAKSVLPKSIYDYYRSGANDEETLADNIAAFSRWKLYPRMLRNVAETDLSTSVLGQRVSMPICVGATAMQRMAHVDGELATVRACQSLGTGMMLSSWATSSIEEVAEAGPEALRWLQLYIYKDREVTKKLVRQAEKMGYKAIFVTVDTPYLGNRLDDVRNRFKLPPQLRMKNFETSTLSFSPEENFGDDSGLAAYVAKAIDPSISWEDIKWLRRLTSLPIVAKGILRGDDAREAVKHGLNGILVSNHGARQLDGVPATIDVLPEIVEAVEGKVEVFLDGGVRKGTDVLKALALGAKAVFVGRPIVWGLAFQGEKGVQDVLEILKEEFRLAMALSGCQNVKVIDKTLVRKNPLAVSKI
As to the kind of experiment: GO enzymatic assay (coupled fluorescence/HRP assay, glycolate substrate). Format: biochemical. Particulars: Table 2; read-out: Range (range of IC50 values calculated from the enzymatic assays). The method, boiled down: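 Coupled HRP/fluorescence read-out of glycolate oxidation by human GO in 50 mM potassium phosphate buffer (pH 7). Inhibitors added across a concentration range.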

In general, IC50 refers to the concentration needed to halve the response being measured.

Regarding `O=C(O)c1[nH]nnc1Sc1ccc(N2CCC(F)(F)CC2)cc1` [Compound 339, 4-((4-(4,4-difluoropiperidin-1-yl)phenyl)thio)-1H-1,2,3-triazole-5-carboxylic acid 2,2,2-trifluoroacetate], the half-maximal inhibitory concentration (IC50) is under 0.1 µM. The same measure for `O=C(O)c1[nH]nnc1SC1CCC(c2cccc(N3CCCCC3)c2)CC1` (centres unmarked) [Compound 340, 4-((4-(3-(piperidin-1-yl)phenyl)cyclohexyl)thio)-1H-1,2,3-triazole-5-carboxylic acid 2,2,2-trifluoroacetate]: under 0.1 µM; for `CN1CCN(c2ccc([C@H]3CC[C@@H](Sc4nn[nH]c4C(=O)O)CC3)cc2)CC1` [Compound 341, 4-(((cis)4-(4-(4-methylpiperazin-1-yl)phenyl)cyclohexyl)thio)-1H-1,2,3-triazole-5-carboxylic acid 2,2,2-trifluoroacetate]: under 0.1 µM; for `O=C(O)c1[nH]nnc1Sc1ccc(-c2ccc(N3CCCCC3)cc2)c(Cl)c1` [Compound 342, 4-((2-chloro-4′-(piperidin-1-yl)-[1,1′-biphenyl]-4-yl)thio)-1H-1,2,3-triazole-5-carboxylic acid 2,2,2-trifluoroacetate]: under 0.1 µM. With `O=C(O)c1[nH]nnc1Sc1cc(OCC2CCCC2)ccc1Cl` [Compound 343, 4-((2-chloro-5-(cyclopentylmethoxy)phenyl)thio)-1H-1,2,3-triazole-5-carboxylic acid] the figure was under 0.1 µM; with `N#Cc1ccc(N2CCC(Sc3nn[nH]c3C(=O)O)CC2)cc1` [Compound 344, 4-((1-(4-cyanophenyl)piperidin-4-yl)thio)-1H-1,2,3-triazole-5-carboxylic acid 2,2,2-trifluoroacetate], under 0.1 µM; with `O=C(O)c1[nH]nnc1S[C@H]1CC[C@@H](c2ccc(Cl)c(Cl)c2)CC1` [Compound 345, 4-(((cis)-4-(3,4-dichlorophenyl)cyclohexyl)thio)-1H-1,2,3-triazole-5-carboxylic acid 2,2,2-trifluoroacetate], under 0.1 µM. The same measure for `O=C(O)c1[nH]nnc1SC1CCN(c2ccc(OC(F)(F)F)c(Cl)c2)CC1` [Compound 346, 4-((1-(3-chloro-4-(trifluoromethoxy)phenyl)piperidin-4-yl)thio)-1H-1,2,3-triazole-5-carboxylic acid]: under 0.1 µM; for `O=C(O)c1[nH]nnc1S[C@H]1CC[C@@H](c2ccc(N3CCCC3)cc2)CC1` [Compound 347, 4-(((cis)-4-(4-(pyrrolidin-1-yl)phenyl)cyclohexyl)thio)-1H-1,2,3-triazole-5-carboxylic acid 2,2,2-trifluoroacetate]: under 0.1 µM; for `O=C(O)c1[nH]nnc1S[C@H]1CC[C@@H](c2ccc(OC(F)(F)F)cc2)CC1` [Compound 348, 4-(((cis)-4-(4-(trifluoromethoxy)phenyl)cyclohexyl)thio)-1H-1,2,3-triazole-5-carboxylic acid]: under 0.1 µM. Turning to `CC1CCCCN1c1ccc(-c2ccc(Sc3nn[nH]c3C(=O)O)cc2)cc1` (centres unmarked) [Compound 349, 4-((4′-(2-methylpiperidin-1-yl)-[1,1′-biphenyl]-4-yl)thio)-1H-1,2,3-triazole-5-carboxylic acid 2,2,2-trifluoroacetate], the IC50 was under 0.1 µM. On to `O=C(O)c1[nH]nnc1CSC1CCN(c2cc(Cl)cc(Cl)c2)CC1` [Compound 350, 4-(((1-(3,5-dichlorophenyl)piperidin-4-yl)thio)methyl)-1H-1,2,3-triazole-5-carboxylic acid 2,2,2-trifluoroacetate], for which the half-maximal inhibitory concentration (IC50) is under 0.1 µM. The same measure for `O=C(O)c1[nH]nnc1Sc1cccc(OC2CCCC2)c1` [Compound 351, 4-((3-(cyclopentyloxy)phenyl)thio)-1H-1,2,3-triazole-5-carboxylic acid 2,2,2-trifluoroacetate]: 0.1 to 1 µM. The same measure for `N#Cc1ccc([C@H]2CC[C@@H](Sc3nn[nH]c3C(=O)O)CC2)cc1` [Compound 352, 4-(((cis)-4-(4-cyanophenyl)cyclohexyl)thio)-1H-1,2,3-triazole-5-carboxylic acid]: under 0.1 µM.
